{"source": "ChEMBL document CHEMBL1123898", "about": "“Antitumor imidazotetrazines. 14. Synthesis and antitumor activity of 6- and 8-substituted imidazo[5,1-d]-1,2,3,5-tetrazinones and 8-substituted pyrazolo[5,1-d]-1,2,3,5-tetrazinones” (1987)", "key": {"[1]": {"assay": "Antitumor activity was assessed against TLX5 tumors in CBA/CA mouse by inoculation of 2 x 10e5 tumor cells through subcutaneous route and mean death of animals (treated/control) was reported at 40 mg/kg dose", "format": "functional"}, "[2]": {"system": "L1210", "assay": "Antitumor activity was assessed against L1210 tumors in B6D2F1 mouse by inoculation of 10e5 tumor cells through intravenous route and mean death of animals (treated/control) was reported at 20 mg/kg peroral dose", "format": "functional", "conditions": "route oral"}, "[3]": {"system": "L1210", "assay": "Antitumor activity was assessed against L1210 tumors in B6D2F1 mouse by inoculation of 10e5 tumor cells through intravenous route and mean death of animals (treated/control) was reported at 40 mg/kg peroral dose", "format": "functional", "conditions": "route oral"}, "[4]": {"assay": "Antitumor activity was assessed against TLX5 tumors in CBA/CA mouse by inoculation of 2 x 10e5 tumor cells through subcutaneous route and number of Survivors to duration was reported at 20 mg/kg ip dose; 3/5", "format": "functional"}, "[5]": {"assay": "Antitumor activity was assessed against TLX5 tumors in CBA/CA mouse by inoculation of 2 x 10e5 tumor cells through subcutaneous route and number of Survivors to duration was reported at 40 mg/kg ip dose; 1/5", "format": "functional"}, "[6]": {"assay": "Antitumor activity was assessed against TLX5 tumors in CBA/CA mouse by inoculation of 2 x 10e5 tumor cells through subcutaneous route and mean death of animals (treated/control) was reported at 80 mg/kg dose", "format": "functional"}, "[7]": {"assay": "Antitumor activity was assessed against TLX5 tumors in CBA/CA mouse by inoculation of 2 x 10e5 tumor cells through subcutaneous route and mean death of animals (treated/control) was reported at 20 mg/kg dose", "format": "functional"}, "[8]": {"system": "L1210", "assay": "Antitumor activity was assessed against L1210 tumors in B6D2F1 mouse by inoculation of 10e5 tumor cells through intravenous route and mean death of animals (treated/control) was reported at 10 mg/kg peroral dose", "format": "functional", "conditions": "route oral"}, "[9]": {"system": "L1210", "assay": "Antitumor activity was assessed against L1210 tumors in B6D2F1 mouse by inoculation of 10e5 tumor cells through intravenous route and number of Survivors to duration was reported at 20 mg/kg peroral dose; 6/7", "format": "functional", "conditions": "route oral"}, "[10]": {"system": "L1210", "assay": "Antitumor activity was assessed against L1210 tumors in B6D2F1 mouse by inoculation of 10e5 tumor cells through iv route and mean death of animals (treated/control) was reported at 100 mg/kg po dose", "format": "functional"}, "[11]": {"system": "L1210", "assay": "Antitumor activity was assessed against L1210 tumors in B6D2F1 mouse by inoculation of 10e5 tumor cells through iv route and mean death of animals (treated/control) was reported at 50 mg/kg po dose", "format": "functional"}, "[12]": {"system": "L1210", "assay": "Antitumor activity was assessed against L1210 tumors in B6D2F1 mouse by inoculation of 10e5 tumor cells through iv route and mean death of animals (treated/control) was reported at 200 mg/kg po dose", "format": "functional"}, "[13]": {"system": "L1210", "assay": "Antitumor activity was assessed against L1210 tumors in B6D2F1 mouse by inoculation of 10e5 tumor cells through iv route and number of survivors to duration was reported at 200 mg/kg po dose; 2/7", "format": "functional"}, "[14]": {"system": "L1210", "assay": "Antitumor activity was assessed against L1210 tumors in B6D2F1 mouse by inoculation of 10e5 tumor cells through intraperitoneal route and number of Survivors to duration was reported at 20 mg/kg peroral dose; 8/10", "conditions": "route oral"}, "[15]": {"system": "L1210", "assay": "Antitumor activity was assessed against L1210 tumors in B6D2F1 mouse by inoculation of 10e5 tumor cells through intraperitoneal route and number of Survivors to duration was reported at 40 mg/kg peroral dose; 4/10", "conditions": "route oral"}, "[16]": {"assay": "Antitumor activity was assessed against TLX5 tumors in CBA/CA mouse by inoculation of 2 x 10e5 tumor cells through subcutaneous route and number of Survivors to duration was reported at 80 mg/kg iv dose; 3/5"}, "[17]": {"assay": "Antitumor activity was assessed against TLX5 tumors in CBA/CA mouse by inoculation of 2 x 10e5 tumor cells through subcutaneous route and number of Survivors to duration was reported at 40 mg/kg iv dose; 5/5"}, "[18]": {"assay": "Antitumor activity was assessed against TLX5 tumors in CBA/CA mouse by inoculation of 2 x 10e5 tumor cells through subcutaneous route and mean death of animals (treated/control) was reported at 160 mg/kg dose", "format": "functional"}, "[19]": {"system": "L1210", "assay": "Antitumor activity was assessed against L1210 tumors in B6D2F1 mouse by inoculation of 10e5 tumor cells through intravenous route and mean death of animals (treated/control) was reported at 50 mg/kg peroral dose", "format": "functional", "conditions": "route oral"}, "[20]": {"system": "L1210", "assay": "Antitumor activity was assessed against L1210 tumors in B6D2F1 mouse by inoculation of 10e5 tumor cells through iv route and number of Survivors to duration was reported at 40 mg/kg peroral dose; 2/7", "format": "functional", "conditions": "route oral"}, "[21]": {"assay": "Antitumor activity was assessed against TLX5 tumors in CBA/CA mouse by inoculation of 2 x 10e5 tumor cells through sc route and number of Survivors to duration was reported at 20 mg/kg ip dose; 1/5", "format": "functional", "conditions": "route subcutaneous"}, "[22]": {"system": "L1210", "assay": "Antitumor activity was assessed against L1210 tumors in B6D2F1 mouse by inoculation of 10e5 tumor cells through iv route and mean death of animals (treated/control) was reported at 25 mg/kg po dose", "format": "functional"}, "[23]": {"assay": "Antitumor activity was assessed against TLX5 tumors in CBA/CA mouse by inoculation of 2 x 10e5 tumor cells through sc route and mean death of animals (treated/control) was reported at 10 mg/kg ip dose", "format": "functional", "conditions": "route subcutaneous"}, "[24]": {"assay": "Antitumor activity was assessed against TLX5 tumors in CBA/CA mouse by inoculation of 2 x 10e5 tumor cells through sc route and mean death of animals (treated/control) was reported at 40 mg/kg ip dose", "format": "functional", "conditions": "route subcutaneous"}, "[25]": {"system": "L1210", "assay": "Antitumor activity was assessed against L1210 tumors in B6D2F1 mouse by inoculation of 10e5 tumor cells through iv route and number of Survivors to duration was reported at 100 mg/kg po dose; 5/7", "format": "functional"}, "[26]": {"system": "L1210", "assay": "Antitumor activity was assessed against L1210 tumors in B6D2F1 mouse by inoculation of 10e5 tumor cells through iv route and number of Survivors to duration was reported at 200 mg/kg po dose; 1/7", "format": "functional"}, "[27]": {"assay": "Antitumor activity was assessed against TLX5 tumors in CBA/CA mouse by inoculation of 2 x 10e5 tumor cells through sc route and mean death of animals (treated/control) was reported at 160 mg/kg ip dose", "format": "functional", "conditions": "route subcutaneous"}, "[28]": {"assay": "Antitumor activity was assessed against TLX5 tumors in CBA/CA mouse by inoculation of 2 x 10e5 tumor cells through sc route and mean death of animals (treated/control) was reported at 20 mg/kg ip dose", "format": "functional", "conditions": "route subcutaneous"}, "[29]": {"assay": "Antitumor activity was assessed against TLX5 tumors in CBA/CA mouse by inoculation of 2 x 10e5 tumor cells through sc route and mean death of animals (treated/control) was reported at 80 mg/kg ip dose", "format": "functional", "conditions": "route subcutaneous"}}, "data": [{"smiles": "CNS(=O)(=O)c1ncn2c(=O)n(CCCl)nnc12", "values": [{"measurement": "T/C", "setting": "[1]", "value": ">203", "unit": "%"}, {"measurement": "T/C", "setting": "[2]", "value": ">666", "unit": "%"}, {"measurement": "T/C", "setting": "[3]", "value": 25, "unit": "%"}, {"measurement": "Survivors", "setting": "[4]", "value": 3}, {"measurement": "Survivors", "setting": "[5]", "value": 1}, {"measurement": "T/C", "setting": "[6]", "value": 68, "unit": "%"}, {"measurement": "T/C", "setting": "[7]", "value": ">375", "unit": "%"}, {"measurement": "T/C", "setting": "[8]", "value": 283, "unit": "%"}, {"measurement": "Survivors", "setting": "[9]", "value": 6}]}, {"smiles": "CCCc1nc(C(N)=O)c2nnn(CCCl)c(=O)n12", "values": [{"measurement": "T/C", "setting": "[10]", "value": 186, "unit": "%"}, {"measurement": "T/C", "setting": "[11]", "value": 151, "unit": "%"}, {"measurement": "T/C", "setting": "[12]", "value": ">295", "unit": "%"}, {"measurement": "Survivors", "setting": "[13]", "value": 2}]}, {"smiles": "CN(C)C(=O)c1ncn2c(=O)n(CCCl)nnc12", "values": [{"measurement": "T/C", "setting": "[1]", "value": ">508", "unit": "%"}, {"measurement": "Survivors", "setting": "[14]", "value": 8}, {"measurement": "T/C", "setting": "[2]", "value": ">290", "unit": "%"}, {"measurement": "T/C", "setting": "[3]", "value": ">235", "unit": "%"}, {"measurement": "Survivors", "setting": "[15]", "value": 4}, {"measurement": "Survivors", "setting": "[16]", "value": 3}, {"measurement": "Survivors", "setting": "[17]", "value": 5}, {"measurement": "T/C", "setting": "[18]", "value": 68, "unit": "%"}, {"measurement": "T/C", "setting": "[6]", "value": ">358", "unit": "%"}, {"measurement": "T/C", "setting": "[7]", "value": 161, "unit": "%"}, {"measurement": "T/C", "setting": "[8]", "value": 197, "unit": "%"}]}, {"smiles": "CS(=O)(=O)c1ncn2c(=O)n(CCCl)nnc12", "values": [{"measurement": "T/C", "setting": "[19]", "value": 217, "unit": "%"}, {"measurement": "T/C", "setting": "[1]", "value": 66, "unit": "%"}, {"measurement": "Survivors", "setting": "[20]", "value": 2}, {"measurement": "Survivors", "setting": "[21]", "value": 1}, {"measurement": "T/C", "setting": "[2]", "value": 257, "unit": "%"}, {"measurement": "T/C", "setting": "[3]", "value": ">310", "unit": "%"}, {"measurement": "T/C", "setting": "[6]", "value": 66, "unit": "%"}, {"measurement": "T/C", "setting": "[7]", "value": ">214", "unit": "%"}, {"measurement": "T/C", "setting": "[8]", "value": 217, "unit": "%"}]}, {"smiles": "NC(=O)c1cnn2c(=O)n(CCCl)nnc12", "values": [{"measurement": "T/C", "setting": "[22]", "value": 120, "unit": "%"}, {"measurement": "T/C", "setting": "[23]", "value": 98, "unit": "%"}, {"measurement": "T/C", "setting": "[24]", "value": 116, "unit": "%"}, {"measurement": "Survivors", "setting": "[25]", "value": 5}, {"measurement": "Survivors", "setting": "[26]", "value": 1}, {"measurement": "T/C", "setting": "[27]", "value": 221, "unit": "%"}, {"measurement": "T/C", "setting": "[10]", "value": ">530", "unit": "%"}, {"measurement": "T/C", "setting": "[28]", "value": 123, "unit": "%"}, {"measurement": "T/C", "setting": "[11]", "value": 186, "unit": "%"}, {"measurement": "T/C", "setting": "[12]", "value": 363, "unit": "%"}, {"measurement": "T/C", "setting": "[29]", "value": 143, "unit": "%"}]}]}
